Assay results as given in patent US20240158383A1, “RIBONUCLEOTIDE REDUCTASE (RNR) INHIBITORS AND USES THEREOF” (Boundless Bio, Inc., priority 2021, published 2024).

Tests used:
[1] = biological target: RNR (RNR1:RNR2) (Homo sapiens (Human), UniProt P23921+P31350); assay: RNR enzyme activity, rapid-fire mass spectrometry (RFMS) assay; format: biochemical; settings: [RNR] 50 nM, 1:1 RNR1:RNR2, [CDP] 5 μM, [ATP] 1 mM, 37° C., 45 min
Procedure: A rapid-fire mass spectrometry (RFMS) assay was used to assess RNR enzyme activity using a 384 well plate and a robotic platform.
The plate layout included two validated reference compounds (Triapine (3-AP) and Hydroxyurea (HU)): • A dose response in duplicate; top concentration: 5 μM (3-AP) and 250 μM (HU), semi-log • dilutions. • Spike wells in triplicate randomly spotted at four concentrations: • 250 μM, 100 μM, 30 μM and 2 μM for HU • 5 μM, 2 μM, 0.6 μM and 0.04 μM for 3-AP
First, the multidrop pipes were saturated for 30 minutes with enzymatic solution. Then 30 μL of Stop solution was distributed in column 24. Next, 15 μL of enzyme was distributed in column 1 to 24. Next, a pre-incubation step of 15 minutes at room temperature occurred, followed by distribution of 15 μL of substrate solution (column 1 to 24). Next, the plate was incubated for 45 minutes at 37° C. 30 μL of Stop solution was distributed to columns 1 to 23.
The final parameters for the enzyme reactions were: • Incubation: 37° C., 45 min • [CDP]: 5 μM; [ATP]: 1 mM; [NADPH]: No • [RNR]final: 50 nM with 1:1 (RNR1:RNR2) ratio • Final volume: 30 μL • Stop solution: 6% HCOOH containing 2 μM of 15
The compounds were screened at concentrations from 10 nM to 30 μM.

[2] = system: pCHK1 (S345) in Colo320 DM cells; assay: CHK1 cellular activity (phospho-CHK1 AlphaLisa); format: cell-based, human; settings: Homo sapiens, COLO 320DM, 16 h, compound overnight (approximately 16 hours)
Procedure: Phospho-CHK1 cellular activity was measured as a marker of replication stress which is a consequence of RNR inhibition.
Colo320 DM cells (ATCC #CCL-220, derived from human colorectal adenocarcinoma, Dukes' type C) were seeded on a 96-well cell culture treated assay plate at a density of 50,000 cells/well in 200 μL of RPMI-1640 media supplemented with 10% Fetal Bovine Serum and incubated at 37 degrees Celsius overnight. The following day, test compound dilutions were added directly to the plated cells by a Tecan digital dispenser to a final DMSO concentration of <0.5% and incubated at 37 degrees Celsius overnight (approximately 16 hours). The following day all culture media is removed from the cells. 75 μL of 1× AlphaLisa lysis buffer is added to each well and plates are agitated on a shaker for 30 minutes at room temperature. The lysis of cells and detection of pCHK1 (S345) are performed with reagents contained within the AlphaLisa Sure Fire assay kit (Perkin Elmer #ALSU-PCHK1-A) according to the manufacturer's instructions. 10 μL of each lysate was then transferred to a white, 384-well assay plate (Perkin Elmer #6008280). 5 μL of Acceptor mix was then added to each well of lysate in the white, 384-well assay plate and incubated in the dark at room temperature for 60 minutes. 5 μL of Donor mix was then added to each well of the white, 384-well assay plate in subdued light and incubated at room temperature for 60 minutes. Plates are read on an Alpha Technology-compatible plate reader using standard AlphaLisa settings.

Chain of RNR (RNR1:RNR2) (P23921 whole entry): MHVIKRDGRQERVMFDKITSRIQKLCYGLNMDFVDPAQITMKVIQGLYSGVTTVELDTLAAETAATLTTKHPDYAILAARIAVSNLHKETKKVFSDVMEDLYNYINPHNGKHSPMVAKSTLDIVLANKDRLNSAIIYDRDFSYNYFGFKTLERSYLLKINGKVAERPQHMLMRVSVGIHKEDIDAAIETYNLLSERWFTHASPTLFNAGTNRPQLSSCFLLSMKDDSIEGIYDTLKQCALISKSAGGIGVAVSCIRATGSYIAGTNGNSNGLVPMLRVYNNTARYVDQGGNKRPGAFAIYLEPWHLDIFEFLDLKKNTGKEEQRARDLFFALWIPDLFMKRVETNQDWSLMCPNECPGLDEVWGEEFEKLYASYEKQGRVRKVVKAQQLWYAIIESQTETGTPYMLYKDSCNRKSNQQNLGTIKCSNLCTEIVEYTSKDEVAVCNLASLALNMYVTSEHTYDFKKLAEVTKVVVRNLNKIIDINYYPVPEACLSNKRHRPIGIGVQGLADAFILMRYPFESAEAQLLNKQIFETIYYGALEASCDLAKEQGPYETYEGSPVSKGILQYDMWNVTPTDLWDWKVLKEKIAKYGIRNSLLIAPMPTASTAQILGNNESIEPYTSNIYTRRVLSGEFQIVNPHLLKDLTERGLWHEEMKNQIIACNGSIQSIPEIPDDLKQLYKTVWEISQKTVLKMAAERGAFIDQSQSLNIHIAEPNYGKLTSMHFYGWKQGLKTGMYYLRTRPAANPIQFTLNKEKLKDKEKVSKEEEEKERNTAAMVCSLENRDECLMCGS
Chain of RNR (RNR1:RNR2) (P31350 whole entry): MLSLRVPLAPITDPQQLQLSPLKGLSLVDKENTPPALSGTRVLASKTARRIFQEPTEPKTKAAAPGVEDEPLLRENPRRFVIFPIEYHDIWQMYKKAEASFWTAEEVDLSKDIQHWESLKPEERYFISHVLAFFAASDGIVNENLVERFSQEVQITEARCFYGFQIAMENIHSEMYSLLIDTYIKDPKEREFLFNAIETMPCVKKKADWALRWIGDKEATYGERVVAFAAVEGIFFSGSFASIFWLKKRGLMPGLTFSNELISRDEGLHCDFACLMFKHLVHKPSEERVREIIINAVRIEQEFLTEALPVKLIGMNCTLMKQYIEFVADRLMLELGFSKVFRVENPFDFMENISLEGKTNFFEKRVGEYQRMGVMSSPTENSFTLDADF

| Compound | IC50 [1] | IC50 [2] |
| --- | --- | --- |
| Cc1ccc(F)c([C@@H](C)[C@H](NS(=O)(=O)c2ccc(Cl)c3c2OCCC3=O)c2nn[nH]n2)c1C [Example 9, 5-chloro-N-((1S,2R)-2-(6-fluoro-2,3-dimethylphenyl)-1-(2H-tetrazol-5-yl)propyl)-4-oxochromane-8-sulfonamide] | ≤ 0.1 µM | 50 to 100 µM |
| Cc1ccc(F)c([C@@H](C)[C@H](NS(=O)(=O)c2ccc(Cl)c3c2OCC[C@@H]3O)c2nn[nH]n2)c1C [Example 10, (S)-5-chloro-N-((1S,2R)-2-(6-fluoro-2,3-dimethylphenyl)-1-(2H-tetrazol-5-yl)propyl)-4-hydroxychromane-8-sulfonamide] | ≤ 0.1 µM | 50 to 100 µM |
| Cc1ccc(F)c([C@@H](C)[C@H](NS(=O)(=O)c2ccc(Cl)c3c2OCC[C@H]3O)c2nn[nH]n2)c1C [Example 11, (R)-5-chloro-N-((1S,2R)-2-(6-fluoro-2,3-dimethylphenyl)-1-(2H-tetrazol-5-yl)propyl)-4-hydroxychromane-8-sulfonamide] | ≤ 0.1 µM | 50 to 100 µM |
| [2H]C([2H])([2H])[C@@]1(O)CCOc2c(S(=O)(=O)N[C@H](c3nn[nH]n3)[C@H](C)c3c(F)ccc(C)c3C)ccc(Cl)c21 [Example 12, (R)-5-chloro-N-((1S,2R)-2-(6-fluoro-2,3-dimethylphenyl)-1-(2H-tetrazol-5-yl)propyl)-4-hydroxy-4-(methyl-d3)chromane-8-sulfonamide] | ≤ 0.1 µM | 10 to 30 µM |
| Cc1ccc(F)c([C@@H](C)[C@H](NS(=O)(=O)c2ccc(Cl)cc2CC(=O)O)c2nn[nH]n2)c1C [Example 18, 2-(5-chloro-2-(N-((1S,2R)-2-(6-fluoro-2,3-dimethylphenyl)-1-(2H-tetrazol-5-yl)propyl)sulfamoyl)phenyl)acetic acid] | ≤ 0.1 µM | 50 to 100 µM |
| Cc1ccc(F)c([C@@H](C)[C@H](NS(=O)(=O)c2ccc(Cl)cc2F)c2nn[nH]n2)c1C [Example 19, 4-chloro-2-fluoro-N-((1S,2R)-2-(6-fluoro-2,3-dimethylphenyl)-1-(2H-tetrazol-5-yl)propyl)benzenesulfonamide] | 0.1 to 1 µM | 10 to 30 µM |
| CCc1cc(Cl)ccc1S(=O)(=O)N[C@H](c1nn[nH]n1)[C@H](C)c1c(F)ccc(C)c1C [Example 20, 4-chloro-2-ethyl-N-((1S,2R)-2-(6-fluoro-2,3-dimethylphenyl)-1-(2H-tetrazol-5-yl)propyl)benzenesulfonamide] | 0.1 to 1 µM | 30 to 50 µM |
| Cc1ccc(F)c([C@@H](C)[C@H](NS(=O)(=O)c2ccc(Cl)cc2C(F)(F)F)c2nn[nH]n2)c1C [Example 21, 4-chloro-N-((1S,2R)-2-(6-fluoro-2,3-dimethylphenyl)-1-(2H-tetrazol-5-yl)propyl)-2-(trifluoromethyl)benzenesulfonamide] | 0.1 to 1 µM | 50 to 100 µM |
| Cc1ccc(F)c([C@@H](C)[C@H](NS(=O)(=O)c2ccc(Cl)cc2CC(=O)N(C)C)c2nn[nH]n2)c1C [Example 22, 2-(5-chloro-2-(N-((1S,2R)-2-(6-fluoro-2,3-dimethylphenyl)-1-(2H-tetrazol-5-yl)propyl)sulfamoyl)phenyl)-N,N-dimethylacetamide] | 0.1 to 1 µM | 30 to 50 µM |
| Cc1ccc(F)c([C@@H](C)[C@H](NS(=O)(=O)c2ccc(Cl)cc2CC(N)=O)c2nn[nH]n2)c1C [Example 23, 2-(5-chloro-2-(N-((1S,2R)-2-(6-fluoro-2,3-dimethylphenyl)-1-(2H-tetrazol-5-yl)propyl)sulfamoyl)phenyl)acetamide] | 0.1 to 1 µM | 50 to 100 µM |

Second part, the compound after the results:

| IC50 [1] | IC50 [2] | Compound |
| --- | --- | --- |
| 0.1 to 1 µM | 10 to 30 µM | Cc1ccc(F)c([C@@H](C)[C@H](NS(=O)(=O)c2ccc(Cl)cc2CC(=O)N2CCCCC2)c2nn[nH]n2)c1C [Example 24, 4-chloro-N-((1S,2R)-2-(6-fluoro-2,3-dimethylphenyl)-1-(2H-tetrazol-5-yl)propyl)-2-(2-oxo-2-(piperidin-1-yl)ethyl)benzenesulfonamide] |
| 0.1 to 1 µM | 10 to 30 µM | Cc1cc(Cl)ccc1S(=O)(=O)N[C@H](c1nn[nH]n1)[C@H](C)c1c(F)ccc(C)c1C [Example 25, 4-chloro-N-((1S,2R)-2-(6-fluoro-2,3-dimethylphenyl)-1-(2H-tetrazol-5-yl)propyl)-2-methylbenzenesulfonamide] |
| 0.1 to 1 µM | 50 to 100 µM | Cc1ccc(F)c([C@@H](C)[C@H](NS(=O)(=O)c2ccc(Cl)cc2CC(=O)N2CCOCC2)c2nn[nH]n2)c1C [Example 26, 4-chloro-N-((1S,2R)-2-(6-fluoro-2,3-dimethylphenyl)-1-(2H-tetrazol-5-yl)propyl)-2-(2-morpholino-2-oxoethyl)benzenesulfonamide] |
| ≤ 0.1 µM | 10 to 30 µM | Cc1ccc(F)c([C@@H](C)[C@H](NS(=O)(=O)c2ccc(Cl)cc2OC(F)F)c2nn[nH]n2)c1C [Example 27, 4-chloro-2-(difluoromethoxy)-N-((1S,2R)-2-(6-fluoro-2,3-dimethylphenyl)-1-(2H-tetrazol-5-yl)propyl)benzenesulfonamide] |
| ≤ 0.1 µM | 50 to 100 µM | Cc1ccc(F)c([C@@H](C)[C@H](NS(=O)(=O)c2c(Cl)cc(Cl)c3c2OCCN3C)c2nn[nH]n2)c1C [Example 28, 5,7-dichloro-N-((1S,2R)-2-(6-fluoro-2,3-dimethylphenyl)-1-(2H-tetrazol-5-yl)propyl)-4-methyl-3,4-dihydro-2H-benzo[b][1,4]oxazine-8-sulfonamide] |
| ≤ 0.1 µM | ≤ 10 µM | Cc1ccc(F)c([C@@H](C)[C@H](NS(=O)(=O)c2ccc(Cl)c3c2OCCN3C)c2nn[nH]n2)c1C [Example 29, 5-chloro-N-((1S,2R)-2-(6-fluoro-2,3-dimethylphenyl)-1-(2H-tetrazol-5-yl)propyl)-4-methyl-3,4-dihydro-2H-benzo[b][1,4]oxazine-8-sulfonamide] |
| ≤ 0.1 µM | 10 to 30 µM | Cc1ccc(F)c([C@@H](C)[C@H](NS(=O)(=O)c2ccc(Cl)cc2OC(F)(F)F)c2nn[nH]n2)c1C [Example 30, 4-chloro-N-((1S,2R)-2-(6-fluoro-2,3-dimethylphenyl)-1-(2H-tetrazol-5-yl)propyl)-2-(trifluromethoxy)benzenesulfonamdie] |
| 1 to 5 µM | 50 to 100 µM | Cc1cc(S(=O)(=O)N[C@H](c2nn[nH]n2)[C@H](C)c2c(F)ccc(C)c2C)c(C)cc1Cl [Example 31, 4-chloro-N-((1S,2R)-2-(6-fluoro-2,3-dimethylphenyl)-1-(2H-tetrazol-5-yl)propyl)-2,5-dimethylbenzenesulfonamide] |
| 0.1 to 1 µM | 50 to 100 µM | Cc1ccc(F)c([C@@H](C)[C@H](NS(=O)(=O)c2ccc(Cl)c(Cl)c2)c2nn[nH]n2)c1C [Example 32, 3,4-dichloro-N-((1S,2R)-2-(6-fluoro-2,3-dimethylphenyl)-1-(2H-tetrazol-5-yl)propyl)benzenesulfonamide] |
| 0.1 to 1 µM | 30 to 50 µM | Cc1ccc(F)c([C@@H](C)[C@H](NS(=O)(=O)c2ccc(Cl)cc2)c2nn[nH]n2)c1C [Example 33, 4-chloro-N-((1S,2R)-2-(6-fluoro-2,3-dimethylphenyl)-1-(2H-tetrazol-5-yl)propyl)benzenesulfonamide] |
| 5 to 30 µM | 50 to 100 µM | COc1cc(Cl)ccc1S(=O)(=O)N[C@H](c1nnnn1C)[C@H](C)c1c(F)ccc(C)c1C [Example 34, 4-chloro-N-((1S,2R)-2-(6-fluoro-2,3-dimethylphenyl)-1-(1-methyl-1H-tetrazol-5-yl)propyl)-2-methoxybenzensulfonamide] |
| 5 to 30 µM | 50 to 100 µM | COc1cc(Cl)ccc1S(=O)(=O)N[C@H](c1nnn(C)n1)[C@H](C)c1c(F)ccc(C)c1C [Example 35, 4-chloro-N-((1S,2R)-2-(6-fluoro-2,3-dimethylphenyl)-1-(2-methyl-2H-tetrazol-5-yl)propyl)-2-methoxybenzensulfonamide] |
| 1 to 5 µM | 50 to 100 µM | Cc1ccc(F)c([C@@H](C)[C@H](NS(=O)(=O)c2cc(Cl)c(F)cc2F)c2nn[nH]n2)c1C [Example 36, 5-chloro-2,4-difluoro-N-((1S,2R)-2-(6-fluoro-2,3-dimethylphenyl)-1-(2H-tetrazol-5-yl)propyl)benzenesulfonamide] |
